# From paper PMC7933930, “Development of a small molecule that corrects misfolding and increases secretion of Z α1‐antitrypsin” (EMBO Molecular Medicine, 2021)
# pEC50, pIC50: −log10 of the molar value.
# Assays:
# [1] = target: Serotonin 5HT2B (Homo sapiens, UniProt P41595); assay: Off‐target panel: Serotonin 5HT2B (DRX); assay type: cell-based
# Experimental: (§1) GSK716 selectivity and PK properties were profiled in order to investigate the suitability of GSK716 for progression into in vivo studies and the potential for taking it forward as a clinical candidate for testing in humans. Since GSK716 results in loss of inhibitory activity of α1‐antitrypsin, the effect of the compound was assessed on other closely related serpins. […] Furthermore, there were no off‐target effects in a panel of assays considered predictive of known safety liabilities that precluded further development of GSK716 (Table EV1).
# [2] = target: Cycloxygenase2 (COX2) (Homo sapiens, UniProt P35354); assay: Off‐target panel: Cycloxygenase2 (COX2); assay type: biochemical; conditions: Inhibition, read-out: Mean (PXC50)
# Experimental: as §1
# [3] = target: PXR (rat) (Rattus norvegicus, UniProt Q9R1A7); assay: Off‐target panel: PXR (rat); assay type: cell-based
# Experimental: as §1
# [4] = target: Z α1‐antitrypsin (Homo sapiens, UniProt P01009, E366K); assay: Competition binding assay with Alexa488‐labelled analogue of GSK716, Z α1‐antitrypsin; set-up: purified from the plasma of Z α1‐antitrypsin homozygotes; from tissue; host or cells: human plasma of Z α1-antitrypsin homozygotes; conditions: n = 18, mean ± SD, read-out: mean pKD (converted)
# Source text: (§2) The shape of the curves and native mass spectrometry (not shown) are consistent with a single high‐affinity compound binding site. No binding of the fluorescent derivative to polymers of Z α1‐antitrypsin was observed, indicating conformational selectivity for the monomeric protein (Fig 1D). The rate of interaction of the compound with the target was monitored through changes in intrinsic tryptophan fluorescence (Dafforn et al, 1999); this property was used to determine the second‐order association rate constants for GSK716 binding to Z (4.1 × 10^4 M^−1 s^−1) and M α1‐antitrypsin (2.1 × 10^2 M^−1 s^−1; Fig 1E and F). […] Therefore, the selectivity of the compound for Z over M α1‐antitrypsin is dominated by the difference in the rate of association rather than dissociation.
# (§3) Kinetic parameters of GSK716 binding to M, Z, S (Glu264Val) and Baghdad (Ala336Pro) (Haq et al, 2016) α1‐antitrypsin were measured by detecting intrinsic tryptophan fluorescence of the protein (excitation at 280 nm and detection of emission at 320 nm) on a stopped flow apparatus (Applied Photophysics) (Kim & Yu, 1996; Dafforn et al, 1999). […]
# [5] = target: T1, plasma‐purified wild‐type M α1‐antitrypsin (Homo sapiens, UniProt P01009); assay: Competition binding assay with Alexa488‐labelled analogue of GSK716, M α1‐antitrypsin
# T1 construct: purified from the plasma of M (wild‐type) and Z α1‐antitrypsin homozygotes; from tissue; host or cells: human plasma of M (wild-type) homozygotes
# Source text: as §2, §3
# [6] = test system: α1‐antitrypsin; assay: Equilibrium unfolding in guanidinium hydrochloride with bis‐ANS; assay type: biochemical, human; conditions: 50 µM GSK716, guanidinium hydrochloride; ~ 1.3 M in its absence
# Source text: Polymerisation of α1‐antitrypsin involves transition through a transient intermediate state known as M*, that is readily populated by the Z variant (Dafforn et al, 1999; Knaupp et al, 2010). The M* conformational ensemble appears to be a distinct species between the native state conformation and that of the final polymer. One of the hallmarks of M* is its recognition by environment‐sensitive fluorescent reporter dyes. Thermal shift assays that make use of the dye SYPRO Orange report the stability of the protein native state against heat‐induced unfolding. […] Native state stability can also be probed by equilibrium unfolding using chemical denaturants, where a peak in bis‐ANS fluorescence corresponds with a maximally populated unfolding intermediate (James & Bottomley, 1998). […] The association of GSK716 induced a marked quenching and blue‐shift of the α1‐antitrypsin intrinsic tryptophan fluorescence spectrum (Fig 4D, inset). The rate of change in fluorescence during association of 10µM GSK716 was proportional to the propensity of α1‐antitrypsin mutants to form polymers in vivo: inert (M), mild (S), moderate (Baghdad) and severe (Z) α1‐antitrypsin (Fig 4D, top and bottom). […]
# T1 sequence (P01009 25-418): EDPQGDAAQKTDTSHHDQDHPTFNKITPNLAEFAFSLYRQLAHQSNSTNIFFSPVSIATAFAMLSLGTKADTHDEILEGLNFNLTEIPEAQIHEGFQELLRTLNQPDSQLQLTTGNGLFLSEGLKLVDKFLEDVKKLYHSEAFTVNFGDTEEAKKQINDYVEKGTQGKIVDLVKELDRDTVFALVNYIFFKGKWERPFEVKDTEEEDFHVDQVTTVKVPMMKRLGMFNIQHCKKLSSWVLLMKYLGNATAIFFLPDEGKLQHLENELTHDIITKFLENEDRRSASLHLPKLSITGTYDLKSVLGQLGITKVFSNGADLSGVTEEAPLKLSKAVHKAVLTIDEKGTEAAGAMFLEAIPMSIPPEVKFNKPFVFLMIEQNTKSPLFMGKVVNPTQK
# Chain of Cycloxygenase2 (COX2) (P35354 18-604): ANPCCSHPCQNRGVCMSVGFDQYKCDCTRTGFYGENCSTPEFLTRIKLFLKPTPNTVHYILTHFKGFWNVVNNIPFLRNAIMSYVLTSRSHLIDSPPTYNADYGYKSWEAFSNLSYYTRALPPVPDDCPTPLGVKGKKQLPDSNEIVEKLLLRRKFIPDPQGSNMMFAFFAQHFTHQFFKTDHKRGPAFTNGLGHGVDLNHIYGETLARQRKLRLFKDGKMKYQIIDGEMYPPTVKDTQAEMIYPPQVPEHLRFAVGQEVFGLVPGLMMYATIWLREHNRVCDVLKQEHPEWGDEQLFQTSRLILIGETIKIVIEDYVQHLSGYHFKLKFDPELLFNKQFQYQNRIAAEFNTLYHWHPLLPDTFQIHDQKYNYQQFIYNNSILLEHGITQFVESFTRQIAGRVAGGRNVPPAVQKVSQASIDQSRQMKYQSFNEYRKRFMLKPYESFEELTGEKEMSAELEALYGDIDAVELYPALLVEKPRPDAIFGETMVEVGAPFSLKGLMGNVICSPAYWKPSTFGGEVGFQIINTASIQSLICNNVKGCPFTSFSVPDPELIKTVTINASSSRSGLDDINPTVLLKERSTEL
# Chain of Z α1‐antitrypsin (P01009 25-418 E366K): as the sequence (P01009 25-418) above, with E342K counted along it
# Chain of Serotonin 5HT2B (P41595 whole entry): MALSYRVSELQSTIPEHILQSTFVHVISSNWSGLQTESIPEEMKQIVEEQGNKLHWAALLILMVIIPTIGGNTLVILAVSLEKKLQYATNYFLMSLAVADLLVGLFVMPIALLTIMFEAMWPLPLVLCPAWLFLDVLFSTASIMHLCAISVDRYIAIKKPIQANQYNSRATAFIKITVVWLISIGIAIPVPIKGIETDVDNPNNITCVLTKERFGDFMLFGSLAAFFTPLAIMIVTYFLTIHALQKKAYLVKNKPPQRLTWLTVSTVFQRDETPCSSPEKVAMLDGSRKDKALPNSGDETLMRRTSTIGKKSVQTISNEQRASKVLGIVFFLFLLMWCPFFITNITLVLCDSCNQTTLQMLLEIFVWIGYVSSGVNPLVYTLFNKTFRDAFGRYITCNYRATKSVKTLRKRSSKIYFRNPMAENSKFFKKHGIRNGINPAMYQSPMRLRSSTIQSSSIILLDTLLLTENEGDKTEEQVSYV
# Chain of PXR (rat) (Q9R1A7 whole entry): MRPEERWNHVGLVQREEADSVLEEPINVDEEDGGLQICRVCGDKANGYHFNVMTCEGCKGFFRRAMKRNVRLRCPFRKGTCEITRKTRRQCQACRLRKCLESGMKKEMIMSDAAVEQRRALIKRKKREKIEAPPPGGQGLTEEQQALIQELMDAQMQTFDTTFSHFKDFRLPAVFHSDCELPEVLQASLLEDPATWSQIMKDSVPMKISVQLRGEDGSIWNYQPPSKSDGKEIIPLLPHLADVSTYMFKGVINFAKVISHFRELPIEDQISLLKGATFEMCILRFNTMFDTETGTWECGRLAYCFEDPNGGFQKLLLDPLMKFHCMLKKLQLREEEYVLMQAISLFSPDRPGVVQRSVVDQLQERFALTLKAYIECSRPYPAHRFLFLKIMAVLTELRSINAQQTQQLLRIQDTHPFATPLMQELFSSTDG
smiles,measurement,setting,value
CCC[C@@H](NC(=O)c1cccc2c1CC(=O)N2)[C@@H](O)c1cccc(F)c1C [GSK716],pEC50,[1],4.40
same,pIC50,[2],< 4.00
same,pEC50,[3],4.90
same,Kd,[4],0.00316 µM
same,selectivity: affinity for Z over M α1‐antitrypsin,[5],50 fold
same,Kd,"[5]; plasma‐purified wild‐type M α1‐antitrypsin, n = 10, mean ± SD, read-out: mean pKD (converted)",0.158 µM
same,denaturant concentration at peak bis‐ANS fluorescence (maximally populated unfolding intermediate),[6],~ 1.9 M
